How the values were obtained:
Assay in all cases: combination Emax (second highest fraction inhibited in the dose matrix, 72 h); higher = more inhibition; extreme values may be limits of the assay
[1] = test system: SKG-IIIa (Cervical Carcinoma)
How it was run: (§1)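 Cell lines in DMEM/F12 or RPMI with 10% FBS were plated in 1536-well plates, held 24 hours at 37°C, 5% CO2, then given two-drug dose matrices for 72 hours (DMSO typically 0.2%). Viability was read by CellTiter-Glo 2.0 luminescence and scaled as inhibition from 0 (vehicle wells) to 1 (blank wells). Combination Emax is the second-highest inhibition in the matrix; Bliss excess is observed combination effect minus expected EA + EB − EA·EB, EA and EB being single-agent effects.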

[2] = test system: HT-1080 (Other Solid Carcinomas)
How it was run: as §1

[3] = test system: SNU-423 (Hepatocellular Carcinoma)
How it was run: as §1

[4] = test system: NCI-H596 (Other Solid Carcinomas)
How it was run: as §1

NCI-H226 (Mesothelioma) = test system: NCI-H226 (Mesothelioma)
How it was run: as §1

[5] = test system: SAT (Head and Neck Carcinoma)
How it was run: as §1

[6] = test system: MM1S (Plasma Cell Myeloma)
How it was run: as §1

[7] = test system: NCI-H3118 (Head and Neck Carcinoma)
How it was run: as §1

[8] = test system: TUR (Acute Myeloid Leukemia)
How it was run: as §1

[9] = test system: LS-1034 (Colorectal Carcinoma)
How it was run: as §1

[10] = test system: ZR-75-30 (Breast Carcinoma)
How it was run: as §1

[11] = test system: BHT-101 (Thyroid Gland Carcinoma)
How it was run: as §1

[12] = test system: NCI-H1341 (Small Cell Lung Carcinoma)
How it was run: as §1

[13] = test system: SiHa (Cervical Carcinoma)
How it was run: as §1

| Structure (SMILES) | combination Emax [1] | combination Emax [2] | combination Emax [3] | combination Emax [4] | combination Emax (NCI-H226 (Mesothelioma)) | combination Emax [5] | combination Emax [6] | combination Emax [7] | combination Emax [8] | combination Emax [9] | combination Emax [10] | combination Emax [11] | combination Emax [12] | combination Emax [13] |
| --- | --- | --- | --- | --- | --- | --- | --- | --- | --- | --- | --- | --- | --- | --- |
| Cc1c2c(nn1C)CSCc1cc(n(C)n1)CSc1cc(c3ccccc3c1)OCCCc1c(C(=O)O)n(C)c3c-2c(Cl)ccc13 [AZD5991] + CC1(C)CCC(CN2CCN(c3ccc(C(=O)NS(=O)(=O)c4ccc(NCC5CCOCC5)c([N+](=O)[O-])c4)c(Oc4cnc5[nH]ccc5c4)c3)CC2)=C(c2ccc(Cl)cc2)C1 [Venetoclax] (first compound max 1 µM, 7x7, partner max 1 µM) | 0.251 | 0.188 | 0.144 | 0.289 | 0.196 | 0.703 | 0.99 | 0.412 | 0.637 | 0.152 | 0.779 | 0.587 | 0.634 | 0.137 |
| CC1(C)CCC(CN2CCN(c3ccc(C(=O)NS(=O)(=O)c4ccc(NCC5CCOCC5)c([N+](=O)[O-])c4)c(Oc4cnc5[nH]ccc5c4)c3)CC2)=C(c2ccc(Cl)cc2)C1 [Venetoclax] + Cn1cnc2c(F)c(Nc3ccc(Br)cc3Cl)c(C(=O)NOCCO)cc21 [Selumetinib] (first compound max 1 µM, 7x7, partner max 3 µM) | 0.127 | 0.316 | 0.192 | 0.222 | 0.0891 | 0.566 | 0.306 | 0.294 | 0.179 | 0.537 | 0.159 | 0.686 | 0.432 | 0.16 |
| CN(CCO)CC[C@H](CSc1ccccc1)Nc1ccc(S(=O)(=O)NC(=O)c2ccc(N3CCC([C@@H](O)c4ccccc4-c4ccc(Cl)cc4)CC3)cc2)cc1S(=O)(=O)C(F)(F)F [AZD4320] + C1CN(CCC1(C(=O)N[C@@H](CCO)C2=CC=C(C=C2)Cl)N)C3=NC=NC4=C3C=CN4 [Capivasertib] (first compound max 1 µM, 7x7, partner max 3 µM) | 0.131 | 0.5 | 0.406 | 0.42 | 0.227 | 0.418 | 1 | 0.0845 | 0.559 | 0.275 | 0.307 | 0.351 | 0.974 | 0.171 |
| CC(=O)Nc1cccc(-n2c(=O)n(C3CC3)c(=O)c3c(Nc4ccc(I)cc4F)n(C)c(=O)c(C)c32)c1 [Trametinib] + Cc1nc(-c2cn3c(n2)-c2ccc(-c4cnn(C(C)(C)C(N)=O)c4)cc2OCC3)n(C(C)C)n1 [Taselisib] (first compound max 1 µM, 7x7, partner max 10 µM) | 0.527 | 0.628 | 0.827 | 0.81 | 0.327 | 0.941 | 1 | 0.966 | 0.992 | 0.787 | 0.667 | 1 | 0.927 | 0.302 |
| Cc1c2c(nn1C)CSCc1cc(n(C)n1)CSc1cc(c3ccccc3c1)OCCCc1c(C(=O)O)n(C)c3c-2c(Cl)ccc13 [AZD5991] + C[C@@H](Nc1cc(F)cc(F)c1)c1cc(C(=O)N(C)C)cc2c(=O)cc(N3CCOCC3)oc12 [AZD8186] (first compound max 1 µM, 7x7, partner max 3 µM) | 0.24 | 0.157 | 0.431 | 0.299 | 0.245 | 0.747 | 0.958 | 0.33 | 0.391 | 0.172 | 0.528 | 0.659 | 0.706 | 0.356 |
| Cc1cc2ncnn2cc1Nc1ncc2c(n1)n(C1CCOCC1)c(=O)n2C [AZD7648] + C[C@@H]1COCCN1C2=NC(=NC(=C2)C3(CC3)[S@](=N)(=O)C)C4=C5C=CNC5=NC=C4 [AZD6738] (first compound max 10 µM, 7x7, partner max 10 µM) | 0.318 | 0.426 | 0.524 | 0.365 | 0.304 | 0.494 | 0.592 | 0.647 | 0.907 | 0.696 | 0.17 | 0.626 | 0.801 | 0.32 |
| CC1(C)CCC(CN2CCN(c3ccc(C(=O)NS(=O)(=O)c4ccc(NCC5CCOCC5)c([N+](=O)[O-])c4)c(Oc4cnc5[nH]ccc5c4)c3)CC2)=C(c2ccc(Cl)cc2)C1 [Venetoclax] + C[C@@H]1COCCN1C2=NC(=NC(=C2)C3(CC3)[S@](=N)(=O)C)C4=C5C=CNC5=NC=C4 [AZD6738] (first compound max 1 µM, 7x7, partner max 10 µM) | 0.368 | 0.425 | 0.441 | 0.371 | 0.243 | 0.423 | 0.527 | 0.568 | 0.963 | 0.624 | 0.191 | 0.642 | 0.757 | 0.286 |
| CCN(CCO)CCCOc1ccc2c(Nc3cc(CC(=O)Nc4cccc(F)c4)[nH]n3)ncnc2c1 [AZD2811] + C[C@@H]1COCCN1C2=NC(=NC(=C2)C3(CC3)[S@](=N)(=O)C)C4=C5C=CNC5=NC=C4 [AZD6738] (first compound max 1 µM, 7x7, partner max 10 µM) | 0.326 | 0.336 | 0.473 | 0.377 | 0.233 | 0.276 | 0.646 | 0.599 | 0.861 | 0.64 | 0.18 | 0.555 | 0.733 | 0.225 |
| CN(CCO)CC[C@H](CSc1ccccc1)Nc1ccc(S(=O)(=O)NC(=O)c2ccc(N3CCC([C@@H](O)c4ccccc4-c4ccc(Cl)cc4)CC3)cc2)cc1S(=O)(=O)C(F)(F)F [AZD4320] + Cn1cnc2c(F)c(Nc3ccc(Br)cc3Cl)c(C(=O)NOCCO)cc21 [Selumetinib] (first compound max 1 µM, 7x7, partner max 3 µM) | 0.431 | 0.666 | 0.414 | 0.343 | 0.204 | 0.591 | 0.983 | 0.422 | 0.161 | 0.594 | 0.294 | 0.852 | 0.99 | 0.247 |
| C=CCn1c(=O)c2cnc(Nc3ccc(N4CCN(C)CC4)cc3)nc2n1-c1cccc(C(C)(C)O)n1 [AZD1775] + O=C(c1cc(Cc2n[nH]c(=O)c3ccccc23)ccc1F)N1CCN(C(=O)C2CC2)CC1 [Olaparib] (first compound max 1 µM, partner max 10 µM) | 0.369 | 0.354 | 0.731 | 0.431 | 0.342 | 0.449 | 0.779 | 0.889 | 0.663 | 0.372 | 0.213 | 0.406 | 0.525 | 0.199 |
| CCc1c2c(nc3ccc(O)cc13)-c1cc3c(c(=O)n1C2)COC(=O)[C@]3(O)CC [SN-38] + CN(C)CCCOc1ccc(-c2ccc3ncc4c(c3c2)n(C2CCOCC2)c(=O)n4C)cn1 [AZD0156] (first compound max 0.3 µM, 7x7, partner max 1 µM) | 0.42 | 0.374 | 0.455 | 0.348 | 0.337 | 0.344 | 0.966 | 0.402 | 0.982 | 0.814 | 0.0683 | 0.774 | 0.955 | 0.235 |
| COc1cccc2c1C(=O)c1c(O)c3c(c(O)c1C2=O)C[C@@](O)(C(=O)CO)C[C@@H]3O[C@H]1C[C@H](N)[C@H](O)[C@H](C)O1 [Doxorubicin] + Cc1cc2ncnn2cc1Nc1ncc2c(n1)n(C1CCOCC1)c(=O)n2C [AZD7648] (first compound max 1 µM, 7x7, partner max 10 µM) | 0.512 | 0.67 | 0.713 | 0.295 | 0.802 | 0.616 | 0.922 | 0.758 | 0.935 | 0.376 | 0.3 | 0.563 | 0.905 | 0.571 |
| CN(CCO)CC[C@H](CSc1ccccc1)Nc1ccc(S(=O)(=O)NC(=O)c2ccc(N3CCC([C@@H](O)c4ccccc4-c4ccc(Cl)cc4)CC3)cc2)cc1S(=O)(=O)C(F)(F)F [AZD4320] + Cc1cc2ncnn2cc1Nc1ncc2c(n1)n(C1CCOCC1)c(=O)n2C [AZD7648] (first compound max 1 µM, 7x7, partner max 10 µM) | 0.12 | 0.535 | 0.39 | 0.338 | 0.0544 | 0.305 | 1 | 0.0876 | 0.242 | 0.159 | 0.126 | 0.363 | 0.999 | 0.12 |
| CC1(C)CCC(CN2CCN(c3ccc(C(=O)NS(=O)(=O)c4ccc(NCC5CCOCC5)c([N+](=O)[O-])c4)c(Oc4cnc5[nH]ccc5c4)c3)CC2)=C(c2ccc(Cl)cc2)C1 [Venetoclax] + C1CN(CCC1(C(=O)N[C@@H](CCO)C2=CC=C(C=C2)Cl)N)C3=NC=NC4=C3C=CN4 [Capivasertib] (first compound max 1 µM, 7x7, partner max 3 µM) | 0.224 | 0.127 | 0.393 | 0.334 | 0.241 | 0.377 | 0.978 | 0.169 | 0.599 | 0.207 | 0.312 | 0.214 | 0.551 | 0.282 |
| COc1cccc(OCCCN)c1-c1cc(Nc2cnc(C#N)cn2)n[nH]1 [Prexasertib] + C[C@@H]1COCCN1C2=NC(=NC(=C2)C3(CC3)[S@](=N)(=O)C)C4=C5C=CNC5=NC=C4 [AZD6738] (first compound max 1 µM, 7x7, partner max 10 µM) | 0.453 | 0.534 | 0.695 | 0.487 | 0.176 | 0.552 | 0.877 | 0.816 | 1 | 0.71 | 0.166 | 0.78 | 0.912 | 0.445 |
